From ChEMBL document CHEMBL3991601, “The target landscape of clinical kinase drugs” (Science, 2017)
Calls of active or inactive are those of the source. On the calls: in the data inactive means no Kd found up to 30 µM.

What was measured:
[1] = target: T1, ATP-dependent RNA helicase DHX30 (Homo sapiens, UniProt Q7L2E3)
T1 sequence (Q7L2E3 whole entry): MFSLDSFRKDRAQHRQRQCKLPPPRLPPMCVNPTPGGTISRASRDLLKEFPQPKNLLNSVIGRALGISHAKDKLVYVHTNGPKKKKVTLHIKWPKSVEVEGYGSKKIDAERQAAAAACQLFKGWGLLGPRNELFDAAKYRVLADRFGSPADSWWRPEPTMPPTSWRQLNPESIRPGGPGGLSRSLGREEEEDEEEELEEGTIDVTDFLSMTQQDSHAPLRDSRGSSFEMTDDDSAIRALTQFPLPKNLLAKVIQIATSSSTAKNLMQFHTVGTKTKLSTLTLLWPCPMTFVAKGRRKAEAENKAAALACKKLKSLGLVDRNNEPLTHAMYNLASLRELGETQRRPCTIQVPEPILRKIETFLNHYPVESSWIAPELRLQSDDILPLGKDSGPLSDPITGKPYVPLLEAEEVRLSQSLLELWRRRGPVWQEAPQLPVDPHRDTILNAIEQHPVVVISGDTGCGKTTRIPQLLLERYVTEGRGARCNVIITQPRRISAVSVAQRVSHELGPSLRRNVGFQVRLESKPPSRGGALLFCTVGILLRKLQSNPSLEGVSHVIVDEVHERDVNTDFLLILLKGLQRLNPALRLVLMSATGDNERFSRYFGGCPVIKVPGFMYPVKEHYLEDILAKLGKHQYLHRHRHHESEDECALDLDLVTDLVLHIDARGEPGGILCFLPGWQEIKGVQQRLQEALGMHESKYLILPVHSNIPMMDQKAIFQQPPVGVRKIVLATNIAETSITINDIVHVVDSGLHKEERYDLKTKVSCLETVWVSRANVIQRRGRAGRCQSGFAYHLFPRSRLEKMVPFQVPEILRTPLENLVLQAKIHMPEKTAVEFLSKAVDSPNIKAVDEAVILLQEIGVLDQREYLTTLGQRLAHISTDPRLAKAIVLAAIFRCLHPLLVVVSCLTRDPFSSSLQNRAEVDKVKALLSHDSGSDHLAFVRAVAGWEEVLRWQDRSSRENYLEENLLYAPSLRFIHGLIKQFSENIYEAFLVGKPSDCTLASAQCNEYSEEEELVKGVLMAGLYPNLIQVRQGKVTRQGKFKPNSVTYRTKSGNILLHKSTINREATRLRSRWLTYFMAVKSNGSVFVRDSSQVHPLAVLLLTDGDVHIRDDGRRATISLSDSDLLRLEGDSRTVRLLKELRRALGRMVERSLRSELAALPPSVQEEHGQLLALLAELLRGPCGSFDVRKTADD

[2] = target: T2, Eukaryotic translation initiation factor 5B (Homo sapiens, UniProt O60841)
T2 sequence (O60841 whole entry): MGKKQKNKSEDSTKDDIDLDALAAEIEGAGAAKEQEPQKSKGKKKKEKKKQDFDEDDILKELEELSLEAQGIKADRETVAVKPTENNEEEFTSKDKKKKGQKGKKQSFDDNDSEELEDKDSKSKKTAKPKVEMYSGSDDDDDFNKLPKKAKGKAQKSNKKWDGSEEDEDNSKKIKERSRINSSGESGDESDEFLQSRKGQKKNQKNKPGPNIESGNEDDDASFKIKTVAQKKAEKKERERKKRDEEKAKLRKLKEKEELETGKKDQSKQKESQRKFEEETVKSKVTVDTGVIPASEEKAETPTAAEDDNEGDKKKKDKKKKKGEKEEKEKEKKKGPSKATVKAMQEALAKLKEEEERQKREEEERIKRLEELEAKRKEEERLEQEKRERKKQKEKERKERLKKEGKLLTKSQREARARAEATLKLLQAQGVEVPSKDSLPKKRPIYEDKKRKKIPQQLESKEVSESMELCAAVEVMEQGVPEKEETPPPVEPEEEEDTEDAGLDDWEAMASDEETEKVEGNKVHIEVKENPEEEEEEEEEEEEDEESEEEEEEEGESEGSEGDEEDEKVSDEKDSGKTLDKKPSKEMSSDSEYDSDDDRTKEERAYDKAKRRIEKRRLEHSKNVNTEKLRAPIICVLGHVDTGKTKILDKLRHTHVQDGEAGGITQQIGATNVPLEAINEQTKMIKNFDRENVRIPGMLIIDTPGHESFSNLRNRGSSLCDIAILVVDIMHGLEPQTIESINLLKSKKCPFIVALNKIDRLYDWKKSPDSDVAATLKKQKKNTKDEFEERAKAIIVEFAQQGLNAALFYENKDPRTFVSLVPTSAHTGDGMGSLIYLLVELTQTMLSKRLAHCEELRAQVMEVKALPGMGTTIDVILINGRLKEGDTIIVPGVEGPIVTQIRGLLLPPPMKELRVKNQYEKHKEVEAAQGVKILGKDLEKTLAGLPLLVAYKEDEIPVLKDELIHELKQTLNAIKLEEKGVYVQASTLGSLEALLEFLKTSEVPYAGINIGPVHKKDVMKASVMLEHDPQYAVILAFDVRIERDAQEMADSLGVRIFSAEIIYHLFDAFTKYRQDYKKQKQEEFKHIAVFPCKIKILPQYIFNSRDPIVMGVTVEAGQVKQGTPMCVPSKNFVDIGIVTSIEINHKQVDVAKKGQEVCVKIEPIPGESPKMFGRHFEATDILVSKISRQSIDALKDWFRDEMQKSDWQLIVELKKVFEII

Row | Compound | Kd [1] | Kd [2]
1 | CNC(=O)c1cccc2cc(Oc3ccnc4cc(OCC5(N)CC5)c(OC)cc34)ccc12 [LUCITANIB] | > 30 µM (inactive) | > 30 µM (inactive)
2 | Cn1cc(-c2cnc3ccc4ccc(CS(=O)(=O)NCc5ccccn5)cc4c(=O)c3c2)cn1 [MK-8033] | > 30 µM (inactive) | > 30 µM (inactive)
3 | Cc1[nH]c(/C=C2\C(=O)Nc3ccccc32)c(C)c1CCC(=O)O [ORANTINIB] | > 30 µM (inactive) | > 30 µM (inactive)
4 | Cc1cnc(NC(=O)Nc2cc(Br)c(C)cc2OC[C@@H]2CNCCO2)cn1 [RABUSERTIB] | > 30 µM (inactive) | > 30 µM (inactive)
5 | CNC(=O)c1cc(Oc2ccc(NC(=O)Nc3cc(C(C)(C)C)nn3-c3ccc4ncccc4c3)c(F)c2)ccn1 [REBASTINIB] | > 30 µM (inactive) | > 30 µM (inactive)
6 | N#CC1(c2ccc(NC(=O)c3cccnc3NCc3ccncc3)cc2)CCCC1 [RIVOCERANIB] | > 30 µM (inactive) | > 30 µM (inactive)
7 | O=c1[nH]ccc2cc(OC3CCNCC3)ccc12 [SAR-407899 FREE BASE] | > 30 µM (inactive) | > 30 µM (inactive)
8 | CO[C@H]1C[C@@H]2CC[C@@H](C)[C@@](O)(O2)C(=O)C(=O)N2CCCC[C@H]2C(=O)O[C@H]([C@H](C)C[C@@H]2CC[C@@H](O)[C@H](OC)C2)CC(=O)[C@H](C)/C=C(\C)[C@@H](O)[C@@H](OC)C(=O)[C@H](C)C[C@H](C)/C=C/C=C/C=C/1C [SIROLIMUS] | > 30 µM (inactive) | > 30 µM (inactive)
9 | CO[C@H]1C[C@@H]2CC[C@@H](C)[C@@](O)(O2)C(=O)C(=O)N2CCCC[C@H]2C(=O)O[C@H]([C@H](C)C[C@@H]2CC[C@@H](OC(=O)C(C)(CO)CO)[C@H](OC)C2)CC(=O)[C@H](C)/C=C(\C)[C@@H](O)[C@@H](OC)C(=O)[C@H](C)C[C@H](C)/C=C/C=C/C=C/1C [TEMSIROLIMUS] | > 30 µM (inactive) | > 30 µM (inactive)
10 | O=C(Cc1ccc(-c2ccc(OCCN3CCOCC3)cc2)cn1)NCc1ccccc1 [TIRBANIBULIN] | > 30 µM (inactive) | > 30 µM (inactive)
11 | Cc1cc(Nc2ncnc3ccc(NC4=NC(C)(C)CO4)cc23)ccc1Oc1ccn2ncnc2c1 [TUCATINIB] | > 30 µM (inactive) | > 30 µM (inactive)
12 | C[C@@H](N)c1ccc(C(=O)Nc2ccnc3[nH]ccc23)cc1 [Y-39983] | > 30 µM (inactive) | > 30 µM (inactive)
13 | CN1C/C=C/CCOc2cccc(c2)-c2ccnc(n2)Nc2cccc(c2)C1 [ZOTIRACICLIB] | > 30 µM (inactive) | > 30 µM (inactive)

The next lines start with the values.

Row | Kd [1] | Kd [2] | Compound
14 | > 30 µM (inactive) | > 30 µM (inactive) | NC(=O)c1c(OCc2c(F)cc(Br)cc2F)nsc1NC(=O)NCCCCN1CCCC1 [OSI-632]
15 | > 30 µM (inactive) | > 30 µM (inactive) | Cc1nc(Nc2n[nH]c3c2CN(C(=O)N[C@H](CN(C)C)c2ccccc2)C3(C)C)c2sccc2n1 [PF-03758309]
16 | > 30 µM (inactive) | > 30 µM (inactive) | O=C(NOCCO)c1cc(CN2OCCCC2=O)c(F)c(F)c1Nc1ccc(I)cc1F [RO-4987655]
17 | > 30 µM (inactive) | > 30 µM (inactive) | Cn1cc(-c2cnn3c(N)c(Br)c([C@@H]4CCCNC4)nc23)cn1 [SCH-900776]
18 | > 30 µM (inactive) | > 30 µM (inactive) | CC(C)c1cc(CNc2nc(Nc3cc(C4CC4)[nH]n3)cc(N3CCN(C)CC3)n2)on1 [XL-228]
